Results on three molecules are retold here after patent publication US20020042437A1 (priority 1997, published 2002).

For this assay, the system named is Phytophthora infestans. Format: in vivo. The following applies: single active ingredient, tomato leaves, infected next day, evaluated after 6 days.

SMILES strings stand for the structures. Like-named read-outs stand apart in the source and are kept apart here.

For `CCC(C)(NC(=O)c1cc(Cl)c(C)c(Cl)c1)C(=O)CCl` (stereo not drawn) [Compound II.1], the “Efficacy in % of the untreated control” value is recorded as 0% (0.25 ppm in the spray liquor) and 20% (0.5 ppm in the spray liquor).

As for `CNC(=O)/C(=N/OC)c1ccccc1COc1cc(C)ccc1C` [Ib], the “Efficacy in % of the untreated control” value (0.25 ppm in the spray liquor) was 0%.

Turning to `CO/N=C(/C(=O)OC)c1ccccc1COc1ccccc1C` [Ia], the “Efficacy in % of the untreated control” value runs as follows: (0.25 ppm in the spray liquor) 0%; (0.5 ppm in the spray liquor) 0%; (1 ppm in the spray liquor) 0%.
